One experiment deals with DCAF10. Kind of experiment: Peptide pull-down with quantitative MS, HeLa lysate, DCAF10. It is filed as binding, human (HeLa). The conditions noted are these: HeLa lysate; for DCAF10 binding (in words): Nt-Ac vs Nt-free peptides.
The subject of a further experiment is GST-DCAF10. Kind of experiment: Streptavidin pull-down of GST-DCAF10 with biotinylated Nt-peptides. The class given is binding, human. The conditions noted are these: 0.5 µM GST-DCAF10, 5 µM peptide, 1 h RT, WB. As for the experimental part:
To confirm direct interactions between peptides and DCAF10, we performed pull-down assays using bead-bound Nt-peptide variants incubated with purified full-length GST-DCAF10 or GST as a negative control (Fig. 2m–p and Supplementary Fig. 4a).
230 of 1:100), and desalted/concentrated on C18 reversed phase stage tips as previously
MS measurements settings are stated in MS measurements and raw file
BL21(DE3) cells (Thermo Fisher Scientific,
240 agar) plate containing 100 μg/mL ampicillin and 34 μg/mL chloramphenicol, then
Terrific broth (TB) medium (24 g/L yeast extract,
243 20 g/L tryptone, glycerol 4 mL/L, 100 mL/L phosphate buffer containing 0.17 M KH2PO4
244 and 0.72 M K2HPO4) was used to prepare a 1:100 dilution of the starter culture, and OD600
At OD600 = 1, protein induction was initiated by adding 1 mM
247 day, pellets were homogenized and lysed in glycerol lysis buffer (20 mM Tris-HCl pH
Lysis was performed on ice for 30 min, followed by
250 sonication (7 × 20 sec pulses with 20 sec breaks on ice) using a Bandelin sonoplus
Lysates were centrifuged at 4°C for 1 h
253 medium culture was lysed in 20 mL of supernatant (collected in 20 × 1 mL tubes). GST
255 agarose bead; Thermo Fisher Scientific, Waltham, MA, USA). For each 1 mL of
100 μL of GST magnetic beads
257 were washed twice with 500 μL of wash buffer (125 mM Tris-HCl pH 7.4, 150 mM NaCl,
The lysis supernatant was diluted 1:1 with
259 wash buffer, and incubated with the beads on an end-over-end rotator for 1 h at 25°C.
260 After incubation, the supernatant was removed, and the beads were washed twice with
Protein elution was then performed by incubating
263 pH 7.4, 250 mM NaCl, 0.3% Triton X-100) for 30 min at 25°C on an end-over-end rotator.
265 under the same conditions. Elution fractions were pooled and concentrated by
266 centrifugation (4°C, 25 min, 4500 rpm) using a 30 kDa cut-off concentrator (Merck
267 Millipore, #UFC803008, Darmstadt, Germany). Purified proteins were analyzed by
268 colloidal Coomassie stain, WB and MS.
270 Streptavidin pull-downs with GST-DCAF10 and biotinylated peptides
271 Streptavidin magnetic beads (DynabeadsTM MyOneTM Streptavidin T1; Thermo Fisher
272 Scientific, Waltham, MA, USA) were washed twice with 500 μL of wash buffer (125 mM
273 Tris-HCl pH 7.4, 150 mM NaCl, 0.1% Triton X-100). An excess of peptides was added
274 (to ensure full occupancy of the beads) and incubated for 30 min at RT. After peptide
275 binding, beads were again washed three times with 500 μL of wash buffer. The pull-down
276 was then performed in a 100 μL reaction volume with final concentrations of 0.5 µM
277 GST-DCAF10 and 5 µM peptide. GST-DCAF10 or GST alone (as a control) was added
278 to the peptide-streptavidin beads and incubated on a rotator for 1 h at RT. After incubation,
279 the beads were washed three times with 500 μL of wash buffer and resuspended in 4x
280 Laemmli buffer. 1/5 of the input (GST-DCAF10 and GST) and 9/10 of the sample were
281 loaded on a 10% SDS gel and blotted with anti-GST and anti-DCAF10 antibodies, while
282 1/10 was loaded on a 15% SDS gel and blotted with anti-streptavidin antibody to assess
283 equal peptide loading.
285 Streptavidin Sepharose High Performance, GE Healthcare, Chicago, IL, USA) were used.
286 After washing with a high salt wash buffer without detergents (125 mM Tris-HCl pH 7.4,
287 400 mM NaCl), an excess of peptides was added and incubated for 30 min at RT. For each
288 reaction, 10 µL of slurry beads were used. After peptide-binding, beads were again
289 washed once with a high salt wash buffer without detergents and twice with binding buffer
290 without detergents (125 mM Tris-HCl pH 7.4, 150 mM NaCl). The pull-downs were
291 performed in a 100 μL reaction volume in binding buffer without detergents with a final
292 concentration of 0.5 µM GST-DCAF10 and incubated rotating for 1 h at RT. After
293 incubation, the beads were washed five times with 500 μL of high salt wash buffer without […]

Experiment [1] relates to DLD-1 Flp-In T-REx and Lyn KO cells. Kind of experiment: Level of Lyn / Lyn-GFP variants after NMT1/2 and DCAF10 siRNA, Western blot. It is filed as cell-based, human. The settings on record: WB/vinculin, n = 3. An excerpt: To further investigate the role of the Nt-amino acid and its modification in DCAF10 recognition and DCAF10-dependent ubiquitination, we used the CRISPR/Cas9 technique to knock out Lyn in DLD-1 cell lines with T-REx Flp-In background (DLD-1 Lyn KO Flp-In T-REx) (Supplementary Fig. 7a–c). We then integrated Lyn^WT-GFP and two Nt-mutants (Lyn^G2A-GFP and Lyn^G2P-GFP) under a doxycycline-inducible promoter into the Flp-In cassette. Alanine (G2A) is expected to be efficiently acetylated by NatA, generating an Nt-acetylated Lyn mutant. Conversely, the proline (G2P) mutant, is expected not to be acetylated and may retain a free N-terminus[3],[36],[37]. Doxycycline-induced expression of Lyn^WT-GFP, Lyn^G2A-GFP, and Lyn^G2P-GFP was confirmed by Western blot, MS, and fluorescence microscopy (Supplementary Figs. 7d, e; 8a and Supplementary Data 6). While all constructs were ~2–5-fold higher expressed than endogenous Lyn, G2A and G2P were further elevated relative to WT, which may reflect increased stability when Nt-Gly/acetylation is altered (Supplementary Fig. 7e). […] Lyn^WT-GFP mirrored the behavior of endogenous Lyn under NMT1/2 siRNA treatment. Lyn levels decreased with NMT1/2 KD, but were rescued when siRNAs targeting both NMT1/2 and DCAF10 were applied (Fig. 6a, b). […] The weaker reduction of Lyn^WT-GFP may result from Lyn overexpression and the limiting availability of DCAF10.
Fig. 6 N-terminal glycine mutation abolishes DCAF10-dependent stability and ubiquitination. a DLD-1 Flp-In T-REx cells and Lyn KO cells expressing Lyn^WT-GFP, Lyn^G2A-GFP, or Lyn^G2P-GFP were induced for 24 h with 100 ng/mL doxycycline. Cells were treated with NMT1/2 siRNA, DCAF10 siRNA, or both (or left untreated) for 72 h. Representative WBs are shown. Filled circles represent siRNA treatment, empty circles untreated. b WB quantifications of Lyn levels normalized to vinculin. Purple: untreated with NMT1/2 siRNA; blue: treated with NMT1/2 siRNA. Mean ± s.d. with individual data points are shown (n = 3 independent biological replicates). c Schematic of ubiquitination experiments. Created in BioRender. […] Lysates have been treated with NMT1/2 RNAi for 72 h. i Quantification of in vitro ubiquitination assays. Mean ± s.d. with individual data points are shown (n = 3 independent ubiquitination assays). Volcano plots of Lyn-GFP^WT binding partners: j NMT1/2 siRNA ± doxycycline (Dox); k Control ± doxycycline; l NMT1/2 siRNA vs. control both with doxycycline. The −log10 adjusted p-value (two-sided Student’s t test with permutation-based multiple-testing correction; y-axis) is plotted against the log2 fold change (x-axis). Threshold for significance: −log10 p-value ≥ 1.3 (p ≤ 0.05), log2 fold change ≤ −1 or ≥ 1. DCAF10 and Lyn-GFP are marked in green, significant binding partners in purple and in blue, respectively. Source data are provided as a Source data file.
DLD-1 Lyn knockout (KO) Flp-In T-REx cells were generated by CRISPR/Cas9 electroporation using two guide RNAs targeting the LYN locus. Editing and clone validation were confirmed by genomic sequencing, Western blotting, and MS[51]. Stable cell lines expressing doxycycline-inducible Lyn-GFP (WT, G2A, or G2P) were established by FRT/Flp-mediated recombination and validated by antibiotic selection, Western blotting, and fluorescence microscopy. Detailed protocols are provided in the Supplementary Methods and Tables.
461 electroporated using the CM137 program. Following electroporation, the cells were kept […]
(A western blot detects proteins with antibodies after separation by electrophoresis.)

With “GAVTDDEVIRKK [Ac-THOC7, Nt-peptide of THOC7, Nt-acetylated]”, in the experiment on DCAF10, the “DCAF10 binding (in words)” value is on record as “did not bind DCAF10 significantly”. The “Binding to GST-DCAF10 (in words)” value with GST-DCAF10 was “neither Nt-acetylated nor Nt-free THOC7 peptides or GST alone bound DCAF10”.

As to “GCVQCKDKEAKK [Ac-Fyn, Nt-peptide of Fyn, Nt-acetylated]”, in the experiment with DCAF10, the “DCAF10 binding, Nt-Ac vs Nt-Myr (in words)” value is given as “DCAF10 selectively recognizes the acetylated form” and the “DCAF10 binding (in words)” value was “bound to DCAF10”. Also, the “Binding to GST-DCAF10 (in words)” value in the experiment on GST-DCAF10 (listed as Nt-acetylated Fyn) is given as “bound robustly to GST-DCAF10”.

“endogenous Lyn: endogenous Lyn kinase of DLD-1 cells”: in experiment [1] (DLD-1, 72 h NMT1/2 siRNA, 24 h doxycycline 100 ng/mL, average), the “Level decrease following NMT1/2 KD” value was found to be 31%. Moreover, in experiment [1] (DLD-1, 72 h siRNA), the “Level increase upon combined NMT1/2 and DCAF10 KD” value is recorded as 36.5%.

These data come from publication PMC12775124, “CUL4A-DDB1-DCAF10 is an N-recognin for N-terminally acetylated Src kinases” (Nature Communications, 2026).
